# Test results from ChEMBL document CHEMBL1926529, “Synthesis of novel benzofurocoumarin analogues and their anti-proliferative effect on human cancer cell lines” (2012).
# Activity calls are given as the source filed them. The rule behind the calls is not given here.
# Tests used:
# MDA-MB-231 [1] = assay: Growth inhibition of human MDA-MB-231 cells assessed as cell viability at 0.5 uM after 48 hrs by MTS assay; assay type: functional, cell-based
# MDA-MB-231 [2] = assay: Growth inhibition of human MDA-MB-231 cells assessed as cell viability after 48 hrs by MTS assay; assay type: functional; conditions: MDA-MB-231, 48 h
# HeLa [3] = assay: Growth inhibition of human HeLa cells assessed as cell viability at 0.5 uM after 48 hrs by MTS assay; assay type: functional, cell-based
# HeLa [4] = assay: Growth inhibition of human HeLa cells assessed as cell viability after 48 hrs by MTS assay; assay type: functional
# TCC-SUP [5] = assay: Growth inhibition of human TCCSUP cells assessed as cell viability at 0.5 uM after 48 hrs by MTS assay; assay type: functional, cell-based
# TCC-SUP [6] = assay: Growth inhibition of human TCCSUP cells assessed as cell viability after 48 hrs by MTS assay; assay type: functional
SMILES,GI50 (MDA-MB-231 [2]),GI50 (HeLa [4]),growth inhibition (GI) (MDA-MB-231 [1]),growth inhibition (GI) (HeLa [3]),growth inhibition (GI) (TCC-SUP [5]),GI50 (TCC-SUP [6])
O=C(O)c1cc2c(ccc3oc4ccccc4c32)oc1=O,0.097 µM,0.003 µM,Active,Active,Active,0.05 µM
O=c1ccc2c(ccc3oc4ccccc4c32)o1,0.467 µM,0.005 µM,Active,Active,Active,0.031 µM
CCOC(=O)c1cc2c(ccc3oc4ccccc4c32)oc1=O,0.083 µM,0.002 µM,Active,Active,Active,0.012 µM

# Further lines, with some results ahead:
GI50 (MDA-MB-231 [2]),GI50 (HeLa [4]),SMILES,growth inhibition (GI) (MDA-MB-231 [1]),growth inhibition (GI) (HeLa [3]),growth inhibition (GI) (TCC-SUP [5]),GI50 (TCC-SUP [6])
0.205 µM,0.043 µM,CCOC(=O)C(CC(C)C)NC(=O)c1cc2c(ccc3oc4ccccc4c32)oc1=O (stereo not given),Active,Active,Active,0.122 µM
0.106 µM,0.053 µM,COC(=O)C(C)NC(=O)c1cc2c(ccc3oc4ccccc4c32)oc1=O (stereo not given),Active,Active,Active,0.159 µM
